Patent publication US20050070601A1, “Psychostimulant Effects of Forskolin Including Anorexia” (CREATIVE COMPOUNDS, LLC, priority 2003, published 2005)
Several values for one entry are separate records, joined by “and”; a condition that tells them apart may be missing. Identical values can stand only once.

What was measured:
individuals = test: Psychostimulant effect: self-rated wakefulness/alertness before and one hour after administration (Example 1); type: in vivo, human; details: scale of 1 to 10 (10 greatest), one value per subject, average of three days, 100 mg twice daily as 40% Coleus forskohli extract capsules
Description: The forskolin was administered one hour after waking and one hour before bedtime. Subjects were asked to evaluate their level of wakefulness/alertness on a scale of 1 to 10 (10 being the greatest) both before administration and one hour after administration. […] All of the subjects perceived an increase in their level of wakefulness/alertness both in the morning and in the evening. These times were chosen due to the fact that most people have a greater degree of sleepiness or a greater degree of having problems with mental alertness during these times of the day.

[1] = system: overweight individuals who claimed to have a problem controlling their appetite; test: Appetite suppression: self-rated level of appetite before and after administration (Example 2); type: in vivo, human
Description: The forskolin was administered three times per day for five days. Subjects were asked to evaluate the level of their appetite from a scale of 1 to 10 (10 being the greatest). […] Some of the subjects even reported that they felt no desire to eat within 30 minutes after administration even though before administration they felt “extremely hungry”.

Test subjects = test: Experimenting with higher daily dosages: psychostimulant effect in test subjects; type: in vivo, human
Description: While experimenting with forskolin in much higher daily dosages, the inventors discovered new and as yet undiscovered uses for forskolin and Coleus forskohli and its extracts. The novel effects became quite evident and noticeable upon administering 150 mg per day of forskolin in the form of a 20% Coleus forskohli extract. […] The dosages of forskolin that precipitate the best psychostimlant properties seem to be above 100 mg but can be below this level for some highly sensitive people.

humans = test: Test of forskolin as anorectic agent in humans; set-up: species or system human; details: in vivo
Description: Because nearly all psychostimulants have been or are being used as extremely effective appetite suppressants, the inventors decided to test the hypothesis that forskolin would be an effective anorectic agent. […] This anorectic effect is dose dependent and works increasingly until the dosage of 500 mg per day of forskolin. Most tested individuals noticed the appetite suppression effects above 75 mg per day of forskolin; however, a few individuals noticed slight effects down to 30 mg per day.

[2] = scale of 1 to 10 (10 greatest), after dose, one value per subject, average of five days, 100 mg sixty minutes before meals, three times per day, 40% extract capsules
[3] = scale of 1 to 10 (10 greatest), before dose, one value per subject, average of five days, 100 mg sixty minutes before meals, three times per day, 40% extract capsules

C=C[C@@]1(C)CC(=O)[C@]2(O)[C@@]3(C)[C@@H](O)CCC(C)(C)[C@@H]3[C@H](O)[C@H](OC(C)=O)[C@@]2(C)O1 [forskolin, Forskolin]
MBA: level of wakefulness/alertness, morning, before administration (individuals; baseline before dose): 3 (2×) and 2 and 7 (2×)
EBA: level of wakefulness/alertness, evening, before administration (individuals; before evening dose): 6 (2×) and 5 and 7 (2×)
EAA: level of wakefulness/alertness, evening, after administration (individuals; one hour after administration): 7 and 9 and 5 and 10 and 8
MAA: level of wakefulness/alertness, morning, after administration (individuals; one hour after administration): 5 (2×) and 7 and 8 and 10
AB: level of appetite, Breakfast, After Administration [1, 2]: 5 and 3 and 4
AD: level of appetite, Dinner, After Administration [1, 2]: 8 and 3 and 5
AL: level of appetite, Lunch, After Administration [1, 2]: 7 and 3 and 5
BB: level of appetite, Breakfast, Before Administration [1, 3]: 6 and 8 and 4
BD: level of appetite, Dinner, Before Administration [1, 3]: 9 and 10 and 7
BL: level of appetite, Lunch, Before Administration [1, 3]: 9 and 10 and 8
time after administration within which some subjects felt no desire to eat ([1]; some of the subjects, "extremely hungry" before administration): ≤ 30 min
dosages that precipitate the best psychostimulant properties (Test subjects; can be below this level for some highly sensitive people): above 100 mg
untoward central nervous system stimulating effects (jitteriness, nervousness, increased blood pressure, heart rate or respiratory rate) (Test subjects; human, in vivo): did not cause any untoward central nervous system stimulating effects
dosage above which most tested individuals noticed the appetite suppression effects (humans): above 75 mg per day
dosage down to which a few individuals noticed slight appetite suppression effects (humans): ≥ 30 mg per day
dosage until which the dose dependent anorectic effect works increasingly (humans): ≤ 500 mg per day
